Data on one substance can be found in US6911418B2, “Method for treating a subterranean formation” (Schlumberger Technology Corporation, priority 2001, dated 2005).

This series in a line: pH resulting from the aqueous mixture. Type of series: physicochemical. The following applies: 20 percent tetrasodium, 28 percent dipotassium, 21 percent diammonium mixtures. Here is the method:
Calcium carbonate was stirred into each mixture until saturation was achieved. The amount of calcium carbonate dissolution was then determined by inductively coupled plasma.

As for “tetrasodium ethylenediamine tetraacetate”, the “pH of aqueous mixture” value was “about 12”.
